Here are results for 23 molecules from US11021467B2, “Phosphatidylinositol 3-kinase inhibitors” (Gilead Sciences, Inc., priority 2014, dated 2021).

The structures appear in SMILES notation. pIC50: −log10 of the molar value.

What all share (assay): TR-FRET enzymatic activity assay against PI3K isoforms
Common to all, as to format: biochemical

For one assay, the target named is PI3Kβ (Homo sapiens (Human), UniProt P42338). The conditions noted are these: for pIC50: PI3Kβ, TR-FRET, 2×Km ATP, 30 minutes at 25° C.; for PI3Kγ/PI3Kβ ratio: ratio of IC50 values, selectivity for PI3Kβ over PI3Kγ. The text has this: (§1) The compounds of formula (I) were characterized for their enzymatic activity against the PI3K isoforms. […] TR-FRET monitored the formation of 3,4,5-inositol triphosphate molecule that competed with fluorescently labeled PIP3 for binding to the GRP-1 pleckstrin homology domain protein.

Another assay addresses PI3Kγ (Homo sapiens (Human), UniProt P48736). Particulars: 2×Km ATP, 30 minutes at 25° C.
From the text: as §1

The target in the next assay is PI3Kδ (Homo sapiens (Human), UniProt O00329). Particulars: 2×Km ATP, 30 minutes at 25° C.
From the text: as §1

PI3Kβ, sequence (P42338 whole entry, the tested form may be a part, canonical isoform): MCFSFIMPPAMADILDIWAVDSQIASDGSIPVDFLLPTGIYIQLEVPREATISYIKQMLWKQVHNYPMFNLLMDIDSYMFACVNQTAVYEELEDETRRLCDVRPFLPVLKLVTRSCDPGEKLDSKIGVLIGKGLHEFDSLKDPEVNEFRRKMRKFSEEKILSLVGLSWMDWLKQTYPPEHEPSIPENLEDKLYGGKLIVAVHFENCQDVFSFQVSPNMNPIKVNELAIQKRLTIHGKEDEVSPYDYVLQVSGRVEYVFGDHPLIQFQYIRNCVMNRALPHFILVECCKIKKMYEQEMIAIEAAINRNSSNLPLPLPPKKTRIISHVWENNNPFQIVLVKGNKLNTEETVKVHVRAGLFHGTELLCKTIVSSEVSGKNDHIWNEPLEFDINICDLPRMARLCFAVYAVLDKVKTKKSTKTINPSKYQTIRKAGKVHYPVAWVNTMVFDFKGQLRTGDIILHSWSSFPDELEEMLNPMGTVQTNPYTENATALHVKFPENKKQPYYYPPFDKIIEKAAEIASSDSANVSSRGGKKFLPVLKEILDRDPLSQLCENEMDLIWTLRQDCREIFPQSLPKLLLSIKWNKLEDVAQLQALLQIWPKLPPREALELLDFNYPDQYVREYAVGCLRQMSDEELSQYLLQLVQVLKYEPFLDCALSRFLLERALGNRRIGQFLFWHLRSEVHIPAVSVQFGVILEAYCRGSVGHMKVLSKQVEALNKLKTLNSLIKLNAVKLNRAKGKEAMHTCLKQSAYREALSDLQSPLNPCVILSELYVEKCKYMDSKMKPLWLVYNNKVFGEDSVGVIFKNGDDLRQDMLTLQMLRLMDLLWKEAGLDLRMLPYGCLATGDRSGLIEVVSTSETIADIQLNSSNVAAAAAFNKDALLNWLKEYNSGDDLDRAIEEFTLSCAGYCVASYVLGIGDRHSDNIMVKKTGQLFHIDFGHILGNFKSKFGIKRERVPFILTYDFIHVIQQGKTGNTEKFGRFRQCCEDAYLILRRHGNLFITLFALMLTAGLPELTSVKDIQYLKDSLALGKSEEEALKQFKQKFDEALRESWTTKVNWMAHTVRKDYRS
PI3Kβ, sequence (P27986 whole entry partner, the tested form may be a part, canonical isoform): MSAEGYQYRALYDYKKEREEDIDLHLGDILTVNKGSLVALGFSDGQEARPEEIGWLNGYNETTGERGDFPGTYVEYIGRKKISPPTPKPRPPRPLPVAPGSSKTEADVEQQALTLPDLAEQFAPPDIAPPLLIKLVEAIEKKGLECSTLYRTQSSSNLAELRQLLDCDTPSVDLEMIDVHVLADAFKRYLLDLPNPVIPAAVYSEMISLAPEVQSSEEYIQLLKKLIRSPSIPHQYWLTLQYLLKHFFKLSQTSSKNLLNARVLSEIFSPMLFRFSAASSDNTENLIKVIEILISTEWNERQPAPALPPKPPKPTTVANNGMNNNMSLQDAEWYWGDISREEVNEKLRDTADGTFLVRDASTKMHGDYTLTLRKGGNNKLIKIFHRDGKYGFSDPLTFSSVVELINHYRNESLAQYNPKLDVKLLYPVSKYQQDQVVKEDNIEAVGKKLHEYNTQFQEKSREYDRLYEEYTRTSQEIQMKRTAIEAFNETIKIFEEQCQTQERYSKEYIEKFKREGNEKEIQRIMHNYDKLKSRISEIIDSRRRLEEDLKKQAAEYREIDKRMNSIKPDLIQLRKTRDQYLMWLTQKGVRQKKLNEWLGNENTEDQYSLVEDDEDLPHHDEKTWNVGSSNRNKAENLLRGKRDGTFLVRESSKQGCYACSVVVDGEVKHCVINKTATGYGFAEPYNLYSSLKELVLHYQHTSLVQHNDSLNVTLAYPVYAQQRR
PI3Kδ, sequence (O00329 whole entry): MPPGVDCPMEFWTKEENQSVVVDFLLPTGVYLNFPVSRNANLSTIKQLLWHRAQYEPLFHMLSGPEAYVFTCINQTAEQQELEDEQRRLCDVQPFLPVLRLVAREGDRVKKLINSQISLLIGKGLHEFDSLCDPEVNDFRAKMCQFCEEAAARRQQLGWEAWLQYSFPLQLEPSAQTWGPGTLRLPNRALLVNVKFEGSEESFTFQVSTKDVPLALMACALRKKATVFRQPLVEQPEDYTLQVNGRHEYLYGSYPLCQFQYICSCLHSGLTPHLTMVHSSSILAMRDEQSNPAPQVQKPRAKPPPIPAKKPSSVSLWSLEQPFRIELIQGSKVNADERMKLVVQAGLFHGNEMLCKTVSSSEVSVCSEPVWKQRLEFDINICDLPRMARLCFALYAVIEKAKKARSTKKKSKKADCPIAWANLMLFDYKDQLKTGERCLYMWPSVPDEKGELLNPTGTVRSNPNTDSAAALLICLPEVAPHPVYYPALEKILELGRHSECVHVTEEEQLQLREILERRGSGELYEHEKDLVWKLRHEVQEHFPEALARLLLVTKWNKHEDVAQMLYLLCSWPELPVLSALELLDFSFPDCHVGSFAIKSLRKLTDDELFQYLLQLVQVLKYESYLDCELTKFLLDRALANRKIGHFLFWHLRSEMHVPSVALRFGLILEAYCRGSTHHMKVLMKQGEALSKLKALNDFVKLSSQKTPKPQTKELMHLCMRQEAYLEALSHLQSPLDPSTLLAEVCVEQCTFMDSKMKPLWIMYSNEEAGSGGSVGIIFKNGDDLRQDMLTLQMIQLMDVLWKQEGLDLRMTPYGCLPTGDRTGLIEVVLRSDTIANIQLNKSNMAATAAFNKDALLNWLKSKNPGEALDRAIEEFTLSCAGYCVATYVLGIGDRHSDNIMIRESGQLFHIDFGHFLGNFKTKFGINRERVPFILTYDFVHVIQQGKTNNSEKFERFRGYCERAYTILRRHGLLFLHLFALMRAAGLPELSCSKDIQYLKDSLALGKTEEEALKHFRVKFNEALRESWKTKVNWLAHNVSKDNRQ
PI3Kδ, sequence (P27986 whole entry partner): as the sequence (P27986 whole entry partner, the tested form may be a part, canonical isoform) above
PI3Kγ, sequence (P48736 whole entry): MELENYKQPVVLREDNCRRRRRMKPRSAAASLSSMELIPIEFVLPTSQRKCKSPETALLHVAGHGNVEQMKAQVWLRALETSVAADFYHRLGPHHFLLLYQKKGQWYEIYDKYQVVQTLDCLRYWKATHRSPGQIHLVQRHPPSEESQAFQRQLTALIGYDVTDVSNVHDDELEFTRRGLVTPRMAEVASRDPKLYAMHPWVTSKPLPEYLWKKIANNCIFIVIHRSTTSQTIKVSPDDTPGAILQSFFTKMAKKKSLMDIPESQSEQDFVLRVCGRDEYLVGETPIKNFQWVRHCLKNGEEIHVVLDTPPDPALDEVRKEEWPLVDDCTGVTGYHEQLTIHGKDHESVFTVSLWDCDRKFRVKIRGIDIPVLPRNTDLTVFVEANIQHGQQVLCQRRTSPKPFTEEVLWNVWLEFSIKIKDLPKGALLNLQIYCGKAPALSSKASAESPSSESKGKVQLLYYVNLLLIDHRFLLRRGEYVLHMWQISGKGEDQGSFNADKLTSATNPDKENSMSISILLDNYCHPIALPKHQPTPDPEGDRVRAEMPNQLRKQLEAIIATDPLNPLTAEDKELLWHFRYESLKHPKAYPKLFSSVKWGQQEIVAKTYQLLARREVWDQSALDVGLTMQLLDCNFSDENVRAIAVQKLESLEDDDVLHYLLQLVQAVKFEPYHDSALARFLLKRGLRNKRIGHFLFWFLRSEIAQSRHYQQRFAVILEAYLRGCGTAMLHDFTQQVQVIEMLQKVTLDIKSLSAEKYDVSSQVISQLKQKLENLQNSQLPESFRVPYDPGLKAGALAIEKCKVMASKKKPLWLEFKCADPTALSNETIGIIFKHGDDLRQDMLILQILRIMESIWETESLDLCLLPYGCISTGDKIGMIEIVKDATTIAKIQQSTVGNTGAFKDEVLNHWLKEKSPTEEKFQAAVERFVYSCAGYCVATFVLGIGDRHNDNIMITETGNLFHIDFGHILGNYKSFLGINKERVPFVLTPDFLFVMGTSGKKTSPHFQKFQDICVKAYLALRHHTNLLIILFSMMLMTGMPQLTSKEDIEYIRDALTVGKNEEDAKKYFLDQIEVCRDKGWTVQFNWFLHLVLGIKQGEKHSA

For `C[C@H](Nc1nc(N)nc(N)c1C#N)c1nc2cccc(Cl)c2c(=O)n1CC1CCCNC1` (stereo in doubt) [Compound 123, 2,4-diamino-6-(((S)-1-(5-chloro-4-oxo-3-((R)-piperidin-3-ylmethyl)-3,4-dihydroquinazolin-2-yl)ethyl)amino)pyrimidine-5-carbonitrile], the values for the pIC50 at PI3Kβ, at PI3Kγ and at PI3Kδ were 7.10, 5.89 and 8.52, respectively.
`C[C@H](Nc1nc(N)nc(N)c1C#N)c1nc2cccc(Cl)c2c(=O)n1CC1CCCNC1` (stereo in doubt) [Compound 124, 2,4-diamino-6-(((S)-1-(5-chloro-4-oxo-3-((S)-piperidin-3-ylmethyl)-3,4-dihydroquinazolin-2-yl)ethyl)amino)pyrimidine-5-carbonitrile]: the results for the pIC50 against PI3Kβ, at PI3Kγ and against PI3Kδ were 7.06, 5.49 and 8.70, respectively.
The like results for `N#Cc1c(N)nc(N)nc1N[C@@H](c1ccccc1)c1nc2cccc(Cl)c2c(=O)n1CCCN` [Compound 1, (S)-2,4-diamino-6-(((3-(3-aminopropyl)-5-chloro-4-oxo-3,4-dihydroquinazolin-2-yl)(phenyl)methyl)amino)pyrimidine-5-carbonitrile] were, in that order, 7.57, at most 5.00 and 8.05.
As to `C[C@H](Nc1ncnc2scnc12)c1nc2cccc(Cl)c2c(=O)n1CCC(C)(C)N` [Compound 2, (S)-3-(3-amino-3-methylbutyl)-5-chloro-2-(1-(thiazolo[5,4-d]pyrimidin-7-ylamino)ethyl)quinazolin-4(3H)-one], the pIC50 against PI3Kβ is 5.82; at PI3Kγ, at most 5.00; against PI3Kδ, 7.57.
The like results for `C[C@H](Nc1ncnc(N)c1C#N)c1nc2cccc(Cl)c2c(=O)n1CCC(C)(C)N` [Compound 3, (S)-4-amino-6-((1-(3-(3-amino-3-methylbutyl)-5-chloro-4-oxo-3,4-dihydroquinazolin-2-yl)ethyl)amino)pyrimidine-5-carbonitrile] were, in that order, 5.89, at most 5.00 and 7.82.
The like results for `C[C@H](Nc1nc(N)nc(N)c1C#N)c1nc2cccc(Cl)c2c(=O)n1CCCNc1ncccn1` [Compound 4, (S)-2,4-diamino-6-((1-(5-chloro-4-oxo-3-(3-(pyrimidin-2-ylamino)propyl)-3,4-dihydroquinazolin-2-yl)ethyl)amino)pyrimidine-5-carbonitrile] were, in that order, 6.38, 6.18 and 8.30.
The like results for `C[C@H](Nc1nc(N)nc(N)c1C#N)c1nc2cccc(Cl)c2c(=O)n1CCCNc1ccccn1` [Compound 5, (S)-2,4-diamino-6-((1-(5-chloro-4-oxo-3-(3-(pyridin-2-ylamino)propyl)-3,4-dihydroquinazolin-2-yl)ethyl)amino)pyrimidine-5-carbonitrile] were, in that order, 6.03, 5.66 and 8.30.
Turning to `C[C@H](Nc1ncnc(N)c1C#N)c1nc2cccc(Cl)c2c(=O)n1CCCNCc1ccccc1` [Compound 6, (S)-4-amino-6-((1-(3-(3-(benzylamino)propyl)-5-chloro-4-oxo-3,4-dihydroquinazolin-2-yl)ethyl)amino)pyrimidine-5-carbonitrile], the negative-log IC50 (pIC50) against PI3Kβ was 6.60; on PI3Kγ, at most 5.00; against PI3Kδ, 8.05.
On to `C[C@H](Nc1nc(N)nc(N)c1Cl)c1nc2cccc(Cl)c2c(=O)n1CCCN` [Compound 7, (S)-3-(3-aminopropyl)-5-chloro-2-(1-((2,6-diamino-5-chloropyrimidin-4-yl)amino)ethyl)quinazolin-4(3H)-one], for which the pIC50 against PI3Kβ is 6.85; on PI3Kγ, at most 5.00; at PI3Kδ it was 7.46.
The like results for `C[C@H](Nc1nc(N)nc(N)c1C#N)c1nc2cccc(Cl)c2c(=O)n1CCCNCc1ccccc1` [Compound 8, (S)-2,4-diamino-6-((1-(3-(3-(benzylamino)propyl)-5-chloro-4-oxo-3,4-dihydroquinazolin-2-yl)ethyl)amino)pyrimidine-5-carbonitrile] were, in that order, 7.17, 5.77 and 8.30.
Take `C[C@H](Nc1nc(N)nc(N)c1C#N)c1nc2cccc(Cl)c2c(=O)n1N(CCN)Cc1ccccc1` [Compound 9, (S)-2,4-diamino-6-((1-(3-((2-aminoethyl)(benzyl)amino)-5-chloro-4-oxo-3,4-dihydroquinazolin-2-yl)ethyl)amino)pyrimidine-5-carbonitrile]: the pIC50 against PI3Kβ was 6.77; on PI3Kγ, at most 5.00; at PI3Kδ, 7.11.
In the case of `C[C@H](Nc1nc(N)nc(N)c1C#N)c1nc2cccc(Cl)c2c(=O)n1N(CCN)Cc1ccccc1` [Compound 10, (S)-2,4-diamino-6-((1-(3-((2-aminoethyl)(benzyl)amino)-5-chloro-4-oxo-3,4-dihydroquinazolin-2-yl)ethyl)amino)pyrimidine-5-carbonitrile], the pIC50 against PI3Kβ was 6.08; against PI3Kγ, at most 5.00; on PI3Kδ, 6.32.
`C[C@H](Nc1ncnn2ccnc12)c1nc2cccc(Cl)c2c(=O)n1N(C)CCN` [Compound 11, (S)-3-((2-aminoethyl)(methyl)amino)-5-chloro-2-(1-(imidazo[2,1-f][1,2,4]triazin-4-ylamino)ethyl)quinazolin-4(3H)-one]: the pIC50 was 7.03 on PI3Kβ, at most 5.00 on PI3Kγ and 7.43 against PI3Kδ.
The like results for `C[C@H](Nc1ncnc(N)c1C#N)c1nc2cccc(Cl)c2c(=O)n1N(CCN)Cc1ccccc1` [Compound 12, (S)-4-amino-6-((1-(3-((2-aminoethyl)(benzyl)amino)-5-chloro-4-oxo-3,4-dihydroquinazolin-2-yl)ethyl)amino)pyrimidine-5-carbonitrile] were, in that order, 6.52, at most 5.00 and 7.28.
As for `C[C@H](Nc1ncnc(N)c1C#N)c1nc2cccc(Cl)c2c(=O)n1N(CCN)Cc1ccccc1` [Compound 13, (S)-4-amino-6-((1-(3-((2-aminoethyl)(benzyl)amino)-5-chloro-4-oxo-3,4-dihydroquinazolin-2-yl)ethyl)amino)pyrimidine-5-carbonitrile], the negative logarithm of the IC50 (pIC50) against PI3Kβ is 5.17; on PI3Kγ, at most 5.00; at PI3Kδ it was 5.48.
As for `C[C@H](Nc1nc(N)nc(N)c1C#N)c1nc2cccc(Cl)c2c(=O)n1N(C)CCN` [Compound 14, (S)-2,4-diamino-6-((1-(3-((2-aminoethyl)(methyl)amino)-5-chloro-4-oxo-3,4-dihydroquinazolin-2-yl)ethyl)amino)pyrimidine-5-carbonitrile], the figures for the pIC50 at PI3Kβ, against PI3Kγ and against PI3Kδ were 8.05, 5.72 and 8.70, respectively.
Turning to `C[C@H](Nc1nc(N)nc(N)c1C#N)c1nc2cccc(Cl)c2c(=O)n1N(C)CCN` [Compound 15, (S)-2,4-diamino-6-((1-(3-((2-aminoethyl)(methyl)amino)-5-chloro-4-oxo-3,4-dihydroquinazolin-2-yl)ethyl)amino)pyrimidine-5-carbonitrile], the pIC50 on PI3Kβ is 8.70; on PI3Kγ, 5.77; on PI3Kδ, 8.52.
The like results for `C[C@H](Nc1ncnc(N)c1C#N)c1nc2cccc(Cl)c2c(=O)n1N(C)CCN` [Compound 16, (S)-4-amino-6-((1-(3-((2-aminoethyl)(methyl)amino)-5-chloro-4-oxo-3,4-dihydroquinazolin-2-yl)ethyl)amino)pyrimidine-5-carbonitrile] were, in that order, 7.38, at most 5.00 and 8.15.
For the molecule `C[C@H](Nc1ncnc(N)c1C#N)c1nc2cccc(Cl)c2c(=O)n1N(C)CCN` [Compound 17, (S)-4-amino-6-((1-(3-((2-aminoethyl)(methyl)amino)-5-chloro-4-oxo-3,4-dihydroquinazolin-2-yl)ethyl)amino)pyrimidine-5-carbonitrile], the pIC50 against PI3Kβ was 7.16; at PI3Kγ, at most 5.00; against PI3Kδ, 7.96.
`C[C@H](NC(=O)c1nccnc1N)c1nc2cccc(Cl)c2c(=O)n1CCCN` [Compound 18, (S)-3-amino-N-(1-(3-(3-aminopropyl)-5-chloro-4-oxo-3,4-dihydroquinazolin-2-yl)ethyl)pyrazine-2-carboxamide]: the pIC50 at PI3Kβ is 6.44; on PI3Kγ, at most 5.00; against PI3Kδ, 6.43.
With `C[C@H](Nc1ncnc2[nH]cnc12)c1nc2cccc(Cl)c2c(=O)n1CCCN1CCOCC1` [Compound 19, (S)-2-(1-((9H-purin-6-yl)amino)ethyl)-5-chloro-3-(3-morpholinopropyl)quinazolin-4(3H)-one], the pIC50 against PI3Kβ was 5.89; on PI3Kγ, at most 5.00; against PI3Kδ, 7.85.
On to `Cc1ncnc(N[C@@H](C)c2nc3cccc(Cl)c3c(=O)n2CCCN)c1C#N` [Compound 23, (S)-4-((1-(3-(3-aminopropyl)-5-chloro-4-oxo-3,4-dihydroquinazolin-2-yl)ethyl)amino)-6-methylpyrimidine-5-carbonitrile], for which the pIC50 was 7.05 against PI3Kβ, at most 5.00 against PI3Kγ and 7.60 on PI3Kδ.
For `C[C@H](Nc1nc(N)nc(N)c1C#N)c1nc2cccc(Cl)c2c(=O)n1-c1ccccc1` [Compound X, (S)-2,4-diamino-6-((1-(5-chloro-4-oxo-3-phenyl-3,4-dihydroquinazolin-2-yl)ethyl)amino)pyrimidine-5-carbonitrile, reference compound], the results for the PI3Kγ/PI3Kβ ratio on PI3Kβ and on PI3Kβ (listed as (S)-2,4-diamino-6-(1-(5-chloro-4-oxo-3-phenyl-3,4-dihydroquinazolin-2-yl)ethyl)) were 0.6 and “less than 1”, respectively.
